{"source": "patent US11999794B2", "about": "“Human mesothelin chimeric antigen receptors and uses thereof” (Novartis AG, priority 2013, dated 2024)", "assay_in_all_cases": "Hemagglutination inhibition titers and seroconversion", "type_in_all_cases": "in vivo, human", "key": {"B/Brisbane/60/2008": {"tested_on": "B/Brisbane/60/2008", "settings": "for Percent of subjects with seroconversion to influenza 4 weeks after vaccination: B; for GMT ratio, B: GMT at week 4 post vaccination/GMT at baseline", "method": "(§1) The trial was observer-blind because the placebo in the RAD001 0.5 mg daily and 20 mg weekly cohorts differed slightly from the RAD001 tablets in those cohorts. […] The treatment duration for all cohorts was 6 weeks during which time subjects underwent safety evaluations in the clinic every 2 weeks. After subjects had been dosed for 4 weeks, RAD001 steady state levels were measured pre-dose and at one hour post dose. After completing the 6 week course of study drug, subjects were given a 2 week drug free break to reverse any possible RAD001-induced immunosuppression, and then were given a 2012 seasonal influenza vaccination (Agrippal®, Novartis Vaccines and Diagnostics, Siena, Italy) containing the strains H1N1 A/California/07/2009, H3N2 A/Victoria/210/2009, B/Brisbane/60/2008. Four weeks after influenza vaccination, subjects had serum collected for influenza titer measurements. Antibody titers to the 3 influenza vaccine strains as well as to 2 heterologous strains (A/H1N1 strain A/New Jersey/8/76 and A/H3N2 strain A/Victoria/361/11) were measured by standard hemagglutination inhibition assay (Kendal, A P et al. (1982) Concepts and procedures for laboratory-based influenza surveillance. Atlanta: Centers for Disease Control and Prevention B17-B35). Levels of IgG and IgM specific for the A/H1N1/California/07/2009 were measured in serum samples taken before and 4 weeks after influenza vaccination as described previously (Spensieri, F. et al. (2013) Proc. Natl. Acad. Sci. USA 110:14330-14335). Results were expressed as fluorescence intensity.\n(§2) The ability of RAD001 to improve immune function in elderly volunteers was evaluated by measuring the serologic response to the 2012 seasonal influenza vaccine. The hemagglutination inhibition (HI) geometric mean titers (GMT) to each of the 3 influenza vaccine strains at baseline and 4 weeks after influenza vaccination are provided in Table 10. The primary analysis variable was the HI GMT ratio (4 weeks post vaccination/baseline). […] This endpoint was chosen because a 1.2-fold increase in the influenza GMT ratio induced by the MF-59 vaccine adjuvant was associated with a decrease in influenza illness (Iob, A et al. (2005) Epidemiol Infect 133:687-693).\n(§3) Rates of seroconversion 4 weeks after influenza vaccination were also evaluated. Seroconversion was defined as the change from a negative pre-vaccination titer (i.e., HI titer <1:10) to post-vaccination HI titer ≥1:40 or at least 4-fold increase from a non-negative (≥1:10) pre-vaccination HI titer."}, "[1]": {"tested_on": "H1N1 A/California/07/2009", "settings": "for Percent of subjects with seroconversion to influenza 4 weeks after vaccination: H1N1; for GMT ratio, A/H1N1: GMT at week 4 post vaccination/GMT at baseline", "method": "as §1, §2, §3"}, "H3N2 A/Victoria/210/2009": {"tested_on": "H3N2 A/Victoria/210/2009", "settings": "for Percent of subjects with seroconversion to influenza 4 weeks after vaccination: H3N2; for GMT ratio, A/H3N2: GMT at week 4 post vaccination/GMT at baseline", "method": "as §1, §2, §3"}, "[2]": {"settings": "Intention to Treat Population, 0.5 mg, N = 48"}, "[3]": {"settings": "Intention to Treat Population, 5 mg, N = 49"}, "[4]": {"settings": "Intention to Treat Population, 20 mg, N = 48"}, "[5]": {"settings": "Subjects with Baseline Titers <=40, 0.5 mg"}, "[6]": {"settings": "Subjects with Baseline Titers <=40, 5 mg"}, "[7]": {"settings": "Subjects with Baseline Titers <=40, 20 mg"}}, "note": "Marks after values point to notes of the source that are not given here.", "data": [{"compound": "CO[C@H]1C[C@@H]2CC[C@@H](C)[C@@](O)(O2)C(=O)C(=O)N2CCCC[C@H]2C(=O)O[C@H]([C@H](C)C[C@@H]2CC[C@@H](OCCO)[C@H](OC)C2)CC(=O)[C@H](C)/C=C(\\C)[C@@H](O)[C@@H](OC)C(=O)[C@H](C)C[C@H](C)/C=C/C=C/C=C/1C", "note": "[RAD001, (1R,9S,12S,15R,16E,18R,19R,21R,23 S,24E,26E,28E,30S,32S,35R)-1,18-dihydroxy-12-{(1R)-2-[(1 S,3R,4R)-4-(2-hydroxyethoxy)-3-methoxycyclohexyl]-1-methylethyl}-19,30-dimethoxy-15,17,21,23,29,35-hexamethyl-11,36-dioxa-4-aza-tricyclo[30.3.1.04,9]hexatriaconta-16,24,26,28-tetraene-2,3,10,14,20-pentaone]", "values": [{"measurement": "Percent of subjects with seroconversion to influenza 4 weeks after vaccination", "setting": "B/Brisbane/60/2008; [2]", "result": 27, "unit": "%"}, {"measurement": "Percent of subjects with seroconversion to influenza 4 weeks after vaccination", "setting": "B/Brisbane/60/2008; [3]", "result": 22, "unit": "%"}, {"measurement": "Percent of subjects with seroconversion to influenza 4 weeks after vaccination", "setting": "B/Brisbane/60/2008; [4]", "result": 19, "unit": "%"}, {"measurement": "Percent of subjects with seroconversion to influenza 4 weeks after vaccination", "setting": "B/Brisbane/60/2008; [5]", "result": "40* %"}, {"measurement": "Percent of subjects with seroconversion to influenza 4 weeks after vaccination", "setting": "B/Brisbane/60/2008; [6]", "result": 33, "unit": "%"}, {"measurement": "Percent of subjects with seroconversion to influenza 4 weeks after vaccination", "setting": "B/Brisbane/60/2008; [7]", "result": 28, "unit": "%"}, {"measurement": "GMT ratio, B", "setting": "B/Brisbane/60/2008; RAD001 5 mg weekly, N = 49", "result": 2.2}, {"measurement": "GMT ratio, B", "setting": "B/Brisbane/60/2008; RAD001 20 mg weekly, N = 49", "result": 2.1}, {"measurement": "Percent of subjects with seroconversion to influenza 4 weeks after vaccination", "setting": "[1]; [2]", "result": 27, "unit": "%"}, {"measurement": "Percent of subjects with seroconversion to influenza 4 weeks after vaccination", "setting": "[1]; [3]", "result": 27, "unit": "%"}, {"measurement": "Percent of subjects with seroconversion to influenza 4 weeks after vaccination", "setting": "[1]; [4]", "result": 17, "unit": "%"}, {"measurement": "Percent of subjects with seroconversion to influenza 4 weeks after vaccination", "setting": "[1]; [5]", "result": 42, "unit": "%"}, {"measurement": "Percent of subjects with seroconversion to influenza 4 weeks after vaccination", "setting": "[1]; [6]", "result": 45, "unit": "%"}, {"measurement": "Percent of subjects with seroconversion to influenza 4 weeks after vaccination", "setting": "[1]; [7]", "result": 36, "unit": "%"}, {"measurement": "GMT ratio, A/H1N1", "setting": "[1]; RAD001 5 mg weekly, N = 49", "result": 2.5}, {"measurement": "GMT ratio, A/H1N1", "setting": "[1]; RAD001 20 mg weekly, N = 49", "result": 1.8}, {"measurement": "Percent of subjects with seroconversion to influenza 4 weeks after vaccination", "setting": "H3N2 A/Victoria/210/2009; [2]", "result": 27, "unit": "%"}, {"measurement": "Percent of subjects with seroconversion to influenza 4 weeks after vaccination", "setting": "H3N2 A/Victoria/210/2009; [3]", "result": 24, "unit": "%"}, {"measurement": "Percent of subjects with seroconversion to influenza 4 weeks after vaccination", "setting": "H3N2 A/Victoria/210/2009; [4]", "result": 25, "unit": "%"}, {"measurement": "Percent of subjects with seroconversion to influenza 4 weeks after vaccination", "setting": "H3N2 A/Victoria/210/2009; [5]", "result": 64, "unit": "%"}, {"measurement": "Percent of subjects with seroconversion to influenza 4 weeks after vaccination", "setting": "H3N2 A/Victoria/210/2009; [6]", "result": 53, "unit": "%"}, {"measurement": "Percent of subjects with seroconversion to influenza 4 weeks after vaccination", "setting": "H3N2 A/Victoria/210/2009; [7]", "result": 71, "unit": "%"}, {"measurement": "GMT ratio, A/H3N2", "setting": "H3N2 A/Victoria/210/2009; RAD001 5 mg weekly, N = 49", "result": 2.0}, {"measurement": "GMT ratio, A/H3N2", "setting": "H3N2 A/Victoria/210/2009; RAD001 20 mg weekly, N = 49", "result": 2.1}]}]}
